Tests used:
[1] = Carboxy-fluorescein efflux from PE/PG liposomes; format: biochemical; details: 2.5 μM, after 90 minutes
Procedure: Liptin 3e causes membrane leakage when it binds to PG in a membrane, as evidenced by the efflux of fluorescent carboxy-fluorescein from model lipid vesicles of 80% PE/20% PG (the approximate lipid content models E. coli's plasma membrane), shown in FIG. 19A. […] Not shown is the effect of the bee AMP melittin, which forms pores in membranes at 2.5 μM concentrations. Upon addition of melittin within a few minutes of addition the efflux is 100%.
Liptins 3f-h also cause membrane leakage when they bind to PG in a membrane, as evidenced by the efflux of fluorescent carboxy-fluorescein from model lipid vesicles of 80% PE/20% PG (the lipid content models E. coli's plasma membrane), shown in FIG. 19B. The circle bottom line data set is the control without liptin. […] Y-axis: % Efflux; X-axis: Time in minutes.
This greater efflux activity may well translate to lower MICs of these two compounds relative to liptin 3e, and may well change the liptin activity from bacteriostatic to bactericidal. […]

E. Coli (JMR 223-MC4100) = test: MIC in LB culture; format: cell-based; details: overnight 37° C.
Procedure: An E. Coli (JMR 223-MC4100) plate was grown up overnight in LB agar at 37° C. A good colony was selected and added to 5 mL LB growth media. This was incubated at 37° C. with shaking at 250 rpm until the solution reaches an OD of at least 0.5 or higher at 600 nm. A final solution was diluted 500× to an OD of 0.001, correlating to a CFU of 1×10^6. 5 ml solutions of the diluted bacterial broth were measured out. Liptins were added to make solutions of 20 μM, 15 μM, 10 μM, 5 μM, 4 μM, 3 μM, 2 μM, and 1 μM (This means adding 0.2 mL, 0.15 mL, 0.1 mL, 0.05 mL, 0.04 mL, 0.03 mL, 0.02 mL, 0.01 mL of the 500 μM solution). Cultures were allowed to incubate overnight at 37° C. with shaking at 250 rpm. The following day, cultures were analyzed to evaluate the presence or absence of bacterial growth by spectrophotometry at 600 nm (0.66 mg of liptin in 0.95 mL of water; 0.15 OD Diluted 150× to OD of 0.001). […] Growth was not observed in the 2 μM and up solutions. See FIGS. 11A-11B for a visual image of the E. coli cultures.

[2] = system: E. coli, Staphylococcus aureus, Enterococcus faecalis; test: MIC of liptin 3e, overall statement; format: cell-based; details: LB culture
E. coli (MC4100) = test: Serial passage resistance experiment; format: cell-based; details: 0.5 MIC, LB, 37° C., 80-100 generations
Excerpt: (§1) Triplicate serial passage experiments were undertaken with E. coli (MC4100), S. aureus (33186) and E. feucalis (29213).

E. feucalis (29213) = test: Serial passage resistance experiment; format: cell-based; details: 0.5 MIC, LB, 37° C., 80-100 generations
Excerpt: as §1

S. aureus (33186) = test: Serial passage resistance experiment; format: cell-based; details: 0.5 MIC, LB, 37° C., 80-100 generations
Excerpt: as §1

Red blood cells (RBCs) = test: Erythrocyte toxicity, hemoglobin release at 414 nm; format: cell-based; details: 2.5-5 μM, 30 minutes, 37° C.
Procedure: Toxicity of liptin 3e to eukaryotic erythrocytes was assessed by UV/Visible spectroscopy, whereby the change in absorbance at 414 nm was used to quantify the release of hemoglobin, where 100% hemolysis was measured by adding 1% Triton X-100 detergent. Red blood cells (RBCs) were suspended in a buffer of 25 mM TRIS and 1.5 mM dihydrogenphosphate anion (serum inorganic phosphate levels). To the RBCs samples was added differing concentration of 3e—2.5 μM, 5 μM, 7.5 μM, and 10 μM, as well as control containing no 3e, and after 30 minutes incubation and gentle shaking at 37° C. spectra were obtained.

Q: Which “dye leakage (efflux)” value [1] does the source give for `NCC(=O)Nc1ccccc1-c1c2nc(c(-c3ccccc3NC(=O)CN)c3ccc([nH]3)c(-c3ccccc3NC(=O)CN)c3nc(c(-c4ccccc4NC(=O)CN)c4ccc1[nH]4)C=C3)C=C2.O=C(O)C(F)(F)F.O=C(O)C(F)(F)F.O=C(O)C(F)(F)F.O=C(O)C(F)(F)F` [Liptin 3e] here?
A: The value was 5-10%.

Q: What about the MIC (E. Coli (JMR 223-MC4100)) of the same compound?
A: The MIC was 1 to 2 µM.

Q: And the MIC [2]?
A: The MIC was “less than 2 μM”.

Q: And the “MIC after 15 serial passages” value (E. coli (MC4100))?
A: The value was “no different than initial MICs”.

Q: What about the “MIC after 15 serial passages” value (E. feucalis (29213)) of the same compound?
A: The value was “no different than initial MICs”.

Q: What about the “MIC after 15 serial passages” value (S. aureus (33186)) of the same compound?
A: The value was “no different than initial MICs”.

Q: What about the “damage to red blood cells (hemolysis)” value (Red blood cells (RBCs)) of the same compound?
A: The value was 4.5-11%.

— patent publication US10668048B2, “Compounds for inhibiting bacterial growth via phosphatidylglycerol binding” (Wichita State University, priority 2016, dated 2020)
